Where two headings read alike, the source gives them in different places.
How the values were obtained:
EML4-ALK = biological target: T1, EML4-ALK (Homo sapiens, UniProt Q9UM73); assay: EML4-ALK HiBit degradation assay in CRISPR-tagged H3122 cells (Nano-Glo HiBit Lytic Detection); type: cell-based
T1 construct: endogenous in cells; host or cells: H3122 (NSCLC), single-cell clone after CRISPR knock-in of HiBit; the other entry of the earlier key: EML4 (Q9HC35, Echinoderm microtubule-associated protein-like 4)
Description: (§1) NSCLC cell line H3122 was subjected to CRISPR to express EML4-ALK with HiBit-tag on its c-terminal. Single-cell clone was selected and expanded for the following assays that monitor endogenous EML4-ALK level in high throughput manner. Cells were seeded in 384-well white Tissue-culture plates at 3000 cells/well for 8 hours. […] HiBit signal was assessed using Nano-Glo® HiBit Lytic Detection System (Promega™). Degrader-treated was normalized by DMSO-treated controls and DC50 and Dmax were generated by GraphPad Prism® 8.0.
as §1, with “its c-terminus. A single-cell” for “its c-terminal. Single-cell”, “Degrader-treated cells were” for “Degrader-treated was”
as §1, with “its C-terminus. A single-cell” for “its c-terminal. Single-cell”, “Degrader-treated cells were” for “Degrader-treated was”

H3122 cells = assay: CTG; type: cell-based; conditions: read-out: CTG IC50
[1] = NCI-H3122, Table 1, first Dmax column, H3122 EML4-ALK-HiBit, 16 hours, read-out: Degradation Dmax
[2] = NCI-H3122, Table 1, second Dmax column, H3122 EML4-ALK-HiBit, 16 hours, read-out: Degradation Dmax
[3] = NCI-H3122, Table 1, average Dmax, read-out: Degradation Avg. Dmax
[4] = Table 1, first DC50 column, H3122 EML4-ALK-HiBit, 16 hours, read-out: Degradation DC50
[5] = Table 1, second DC50 column, H3122 EML4-ALK-HiBit, 16 hours, read-out: Degradation DC50
[6] = Table 1, average DC50, read-out: Degradation Avg. DC50
[7] = Homo sapiens, NCI-H3122, Table 1
[8] = NCI-H3122, Table 2, first Dmax column, H3122 EML4-ALK-HiBit, 16 hours, read-out: Degradation Dmax
[9] = NCI-H3122, Table 2, average Dmax, read-out: Degradation Avg. Dmax
[10] = Table 2, first DC50 column, H3122 EML4-ALK-HiBit, 16 hours, read-out: Degradation DC50
[11] = Table 2, average DC50, read-out: Degradation Avg. DC50
[12] = Homo sapiens, NCI-H3122, Table 2
[13] = NCI-H3122, Table 2, second Dmax column, H3122 EML4-ALK-HiBit, 16 hours, read-out: Degradation Dmax
[14] = Table 2, second DC50 column, H3122 EML4-ALK-HiBit, 16 hours, read-out: Degradation DC50

T1 sequence (Q9UM73 with tags, fused parts or gaps): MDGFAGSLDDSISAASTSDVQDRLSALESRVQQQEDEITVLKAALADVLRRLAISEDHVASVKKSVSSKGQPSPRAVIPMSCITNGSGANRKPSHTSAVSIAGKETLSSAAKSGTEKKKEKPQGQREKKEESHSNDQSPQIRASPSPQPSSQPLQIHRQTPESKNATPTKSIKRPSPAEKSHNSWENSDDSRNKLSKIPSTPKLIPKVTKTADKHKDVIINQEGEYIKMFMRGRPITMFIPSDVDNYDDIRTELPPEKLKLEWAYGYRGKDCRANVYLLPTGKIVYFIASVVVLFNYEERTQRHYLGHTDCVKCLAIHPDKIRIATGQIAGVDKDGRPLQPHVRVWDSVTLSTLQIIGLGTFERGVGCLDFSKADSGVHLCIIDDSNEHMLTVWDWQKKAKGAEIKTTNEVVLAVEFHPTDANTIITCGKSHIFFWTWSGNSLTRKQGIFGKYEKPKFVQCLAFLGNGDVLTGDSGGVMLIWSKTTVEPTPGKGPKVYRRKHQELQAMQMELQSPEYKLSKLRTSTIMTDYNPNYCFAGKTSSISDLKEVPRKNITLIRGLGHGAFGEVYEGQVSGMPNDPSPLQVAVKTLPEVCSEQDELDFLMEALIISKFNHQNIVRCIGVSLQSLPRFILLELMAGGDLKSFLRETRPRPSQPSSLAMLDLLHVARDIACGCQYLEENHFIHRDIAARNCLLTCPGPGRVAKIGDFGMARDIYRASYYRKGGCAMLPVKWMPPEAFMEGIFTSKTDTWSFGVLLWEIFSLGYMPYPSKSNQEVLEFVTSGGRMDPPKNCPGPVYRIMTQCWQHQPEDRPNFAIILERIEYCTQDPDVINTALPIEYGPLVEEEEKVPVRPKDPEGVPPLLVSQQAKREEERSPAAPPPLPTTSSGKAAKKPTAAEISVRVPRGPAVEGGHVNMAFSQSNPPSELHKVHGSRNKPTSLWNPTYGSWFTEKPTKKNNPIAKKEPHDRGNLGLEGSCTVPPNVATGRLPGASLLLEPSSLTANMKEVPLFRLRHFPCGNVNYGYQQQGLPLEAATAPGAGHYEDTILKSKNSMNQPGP

SMILES | Dmax (EML4-ALK; [1]) [%] | Dmax (EML4-ALK; [2]) [%] | Dmax (EML4-ALK; [3]) [%] | DC50 (EML4-ALK; [4]) [nM] | DC50 (EML4-ALK; [5]) [nM] | DC50 (EML4-ALK; [6]) [nM] | IC50 (H3122 cells; [7]) [nM] | IC50 (H3122 cells; Table 1) [nM] | Dmax (EML4-ALK; [8]) [%] | Dmax (EML4-ALK; [9]) [%] | DC50 (EML4-ALK; [10]) [nM] | DC50 (EML4-ALK; [11]) [nM] | IC50 (H3122 cells; [12]) [nM] | Dmax (EML4-ALK; [13]) [%] | DC50 (EML4-ALK; [14]) [nM]
COc1cc(CCN(C)C(=O)CCOCCC(=O)N[C@H](C(=O)N2C[C@H](O)C[C@H]2C(=O)N[C@@H](C)c2ccc(-c3scnc3C)cc2)C(C)(C)C)c(C)cc1Nc1ncc(Cl)c(Nc2ccccc2S(=O)(=O)C(C)C)n1 [compound 52, (2S,4R)-1-((S)-2-(3-(3-((4-((5-chloro-4-((2-(isopropylsulfonyl)phenyl)amino)pyrimidin-2-yl)amino)-5-methoxy-2-methylphenethyl)(methyl)amino)-3-oxopropoxy)propanamido)-3,3-dimethylbutanoyl)-4-hydroxy-N-((S)-1-(4-(4-methylthiazol-5-yl)phenyl)ethyl)pyrrolidine-2-carboxamide] | 54.8 | 49.4 | 52.1 | 214 | 107 | 160 | 67.7 |  |  |  |  |  |  |  | 
COc1cc(CCN(C)C(=O)CCOCCOCCNC(=O)COc2cccc3c2C(=O)N(C2CCC(=O)NC2=O)C3=O)c(C)cc1Nc1ncc(Cl)c(Nc2ccccc2S(=O)(=O)C(C)C)n1 (stereo not drawn) [compound 8, N-(4-((5-chloro-4-((2-(isopropylsulfonyl)phenyl)amino)pyrimidin-2-yl)amino)-5-methoxy-2-methylphenethyl)-3-(2-(2-(2-((2-(2,6-dioxopiperidin-3-yl)-1,3-dioxoisoindolin-4-yl)oxy)acetamido)ethoxy)ethoxy)-N-methylpropanamide] | 44.3 |  | 44.8 | 171 |  | 171 | 75 |  |  |  |  |  |  |  | 
COc1cc(CCN(C)C(=O)CCCCCCCC(=O)N[C@H](C(=O)N2C[C@H](O)C[C@H]2C(=O)N[C@@H](C)c2ccc(-c3scnc3C)cc2)C(C)(C)C)c(C)cc1Nc1ncc(Cl)c(Nc2ccccc2S(=O)(=O)C(C)C)n1 [compound 41, N^1-(4-((5-chloro-4-((2-(isopropylsulfonyl)phenyl)amino)pyrimidin-2-yl)amino)-5-methoxy-2-methylphenethyl)-N^9-((S)-1-((2S,4R)-4-hydroxy-2-(((S)-1-(4-(4-methylthiazol-5-yl)phenyl)ethyl)carbamoyl)pyrrolidin-1-yl)-3,3-dimethyl-1-oxobutan-2-yl)-N^1-methylnonanediamide] | 56.2 |  | 56.2 | 626 |  | 626 | 176 |  |  |  |  |  |  |  | 
CC[C@@H](NC(=O)[C@@H]1C[C@H](NC(=O)CCCCCCCC(=O)N(C)CCc2cc(OC)c(Nc3ncc(Cl)c(Nc4ccccc4S(=O)(=O)C(C)C)n3)cc2C)CN1C(=O)[C@@H](NC(=O)[C@H](C)NC)C(C)(C)C)c1ccccc1 [Compound 56] |  |  |  | 163 | 226 | 195 |  | 360 |  |  |  |  |  |  | 
COc1cc(CCN(C)C(=O)CCOCCOCCNc2cccc3c2C(=O)N(C2CCC(=O)NC2=O)C3=O)c(C)cc1Nc1ncc(Cl)c(Nc2ccccc2S(=O)(=O)C(C)C)n1 (stereo not drawn) [compound 4, N-(4-((5-chloro-4-((2-(isopropylsulfonyl)phenyl)amino)pyrimidin-2-yl)amino)-5-methoxy-2-methylphenethyl)-3-(2-(2-((2-(2,6-dioxopiperidin-3-yl)-1,3-dioxoisoindolin-4-yl)amino)ethoxy)ethoxy)-N-methylpropanamide] | 44.8 | 33 | 38.9 | 100 | 34 | 67 | 25.1 |  |  |  |  |  |  |  | 
COc1cc(CCN(C)C(=O)CCOCCOCCOCC#Cc2cccc3c2C(=O)N(C2CCC(=O)NC2=O)C3=O)c(C)cc1Nc1ncc(Cl)c(Nc2ccccc2P(C)(C)=O)n1 (stereo not drawn) [Compound 63] |  |  |  |  |  |  |  |  | 27.3 | 27.3 | 3910 | 3910 | > 10000 |  | 
COc1cc(CCN(C)C(=O)CCCCCNc2cccc3c2C(=O)N(C2CCC(=O)NC2=O)C3=O)c(C)cc1Nc1ncc(Cl)c(Nc2ccccc2P(C)(C)=O)n1 (stereo not drawn) [Compound 65] |  |  |  |  |  |  |  |  | 26.2 | 26.2 | 2560 | 2560 | 1100 |  | 
COc1cc(CCN(C)C(=O)CCCCCC#Cc2cccc3c2C(=O)N(C2CCC(=O)NC2=O)C3=O)c(C)cc1Nc1ncc(Cl)c(Nc2ccccc2P(C)(C)=O)n1 (stereo not drawn) [Compound 62] |  |  |  |  |  |  |  |  | 27.8 | 27.8 | 4380 | 4380 | > 10000 |  | 
COc1cc(CCNCCCCCCCC(=O)N[C@H](C(=O)N2C[C@H](O)C[C@H]2C(=O)N[C@@H](C)c2ccc(-c3scnc3C)cc2)C(C)(C)C)c(C)cc1Nc1ncc(Cl)c(Nc2ccccc2S(=O)(=O)C(C)C)n1 [Compound 45] | 51 |  | 51 | 390 |  | 390 | 106 |  |  |  |  |  |  |  | 
COc1cc(CCNCCCCCC(=O)N[C@H](C(=O)N2C[C@H](O)C[C@H]2C(=O)N[C@@H](C)c2ccc(-c3scnc3C)cc2)C(C)(C)C)c(C)cc1Nc1ncc(Cl)c(Nc2ccccc2S(=O)(=O)C(C)C)n1 [Compound 44] | 53 |  | 53 | 1250 |  | 1250 | 252 |  |  |  |  |  |  |  | 
COc1cc(CCNCCCC(=O)N[C@H](C(=O)N2C[C@H](O)C[C@H]2C(=O)N[C@@H](C)c2ccc(-c3scnc3C)cc2)C(C)(C)C)c(C)cc1Nc1ncc(Cl)c(Nc2ccccc2P(C)(C)=O)n1 [Compound 72] |  |  |  |  |  |  |  |  | 37.9 | 37.9 | 8820 | 6200 | 2950 | 37.9 | 3590
COc1cc(CCN(C)C(=O)CCCC#Cc2cccc3c2C(=O)N(C2CCC(=O)NC2=O)C3=O)c(C)cc1Nc1ncc(Cl)c(Nc2ccccc2P(C)(C)=O)n1 (stereo not drawn) [Compound 61] |  |  |  |  |  |  |  |  | 29.5 | 34.5 | 9040 | 8700 | > 10000 | 39.6 | 8370
COc1cc(CCN(C)C(=O)CCOCCC(=O)N[C@H](C(=O)N2C[C@H](O)C[C@H]2C(=O)N[C@@H](C)c2ccc(-c3scnc3C)cc2)C(C)(C)C)c(C)cc1Nc1ncc(Cl)c(Nc2ccccc2P(C)(C)=O)n1 [compound 71, (2S,4R)-1-((S)-2-(3-(3-((4-((5-chloro-4-((2-(dimethylphosphoryl)phenyl)amino)pyrimidin-2-yl)amino)-5-methoxy-2-methylphenethyl)(methyl)amino)-3-oxopropoxy)propanamido)-3,3-dimethylbutanoyl)-4-hydroxy-N-((S)-1-(4-(4-methylthiazol-5-yl)phenyl)ethyl)pyrrolidine-2-carboxamide] |  |  |  |  |  |  |  |  | 50.9 | 47.3 | 543 | 350 | 222 | 43.7 | 150
COc1cc(CCNCCOCCOCCOCCC(=O)N[C@H](C(=O)N2C[C@H](O)C[C@H]2C(=O)N[C@@H](C)c2ccc(-c3scnc3C)cc2)C(C)(C)C)c(C)cc1Nc1ncc(Cl)c(Nc2ccccc2S(=O)(=O)C(C)C)n1 [Compound 47] | 81.9 | 95.6 | 88.7 | 1100 | 347 | 723 | 285 |  |  |  |  |  |  |  | 

From US20230158157A1, “POTENT AND SELECTIVE DEGRADERS OF ALK” (DANA-FARBER CANCER INSTITUTE, INC., priority 2020, published 2023)
